In patent publication US20250179013A1, “INHIBITORS OF RNA HELICASE DHX9 AND USES THEREOF” (ACCENT THERAPEUTICS, INC., priority 2022, published 2025):

Target: T1, Human recombinant DHX9 protein (Homo sapiens, UniProt Q08211)
T1 construct: purchased Viva
Assay: DHX9 ATPase assay (ADP-Glo biochemical assay)
Conditions: for DHX9 Biochemical Max Inhibition: maximum inhibition in ATPase assay, 10 μM Aurintricarboxylic acid = 100%; for IC50: read-out: DHX9 Biochemical Inflection Point

T1 sequence (Q08211 whole entry): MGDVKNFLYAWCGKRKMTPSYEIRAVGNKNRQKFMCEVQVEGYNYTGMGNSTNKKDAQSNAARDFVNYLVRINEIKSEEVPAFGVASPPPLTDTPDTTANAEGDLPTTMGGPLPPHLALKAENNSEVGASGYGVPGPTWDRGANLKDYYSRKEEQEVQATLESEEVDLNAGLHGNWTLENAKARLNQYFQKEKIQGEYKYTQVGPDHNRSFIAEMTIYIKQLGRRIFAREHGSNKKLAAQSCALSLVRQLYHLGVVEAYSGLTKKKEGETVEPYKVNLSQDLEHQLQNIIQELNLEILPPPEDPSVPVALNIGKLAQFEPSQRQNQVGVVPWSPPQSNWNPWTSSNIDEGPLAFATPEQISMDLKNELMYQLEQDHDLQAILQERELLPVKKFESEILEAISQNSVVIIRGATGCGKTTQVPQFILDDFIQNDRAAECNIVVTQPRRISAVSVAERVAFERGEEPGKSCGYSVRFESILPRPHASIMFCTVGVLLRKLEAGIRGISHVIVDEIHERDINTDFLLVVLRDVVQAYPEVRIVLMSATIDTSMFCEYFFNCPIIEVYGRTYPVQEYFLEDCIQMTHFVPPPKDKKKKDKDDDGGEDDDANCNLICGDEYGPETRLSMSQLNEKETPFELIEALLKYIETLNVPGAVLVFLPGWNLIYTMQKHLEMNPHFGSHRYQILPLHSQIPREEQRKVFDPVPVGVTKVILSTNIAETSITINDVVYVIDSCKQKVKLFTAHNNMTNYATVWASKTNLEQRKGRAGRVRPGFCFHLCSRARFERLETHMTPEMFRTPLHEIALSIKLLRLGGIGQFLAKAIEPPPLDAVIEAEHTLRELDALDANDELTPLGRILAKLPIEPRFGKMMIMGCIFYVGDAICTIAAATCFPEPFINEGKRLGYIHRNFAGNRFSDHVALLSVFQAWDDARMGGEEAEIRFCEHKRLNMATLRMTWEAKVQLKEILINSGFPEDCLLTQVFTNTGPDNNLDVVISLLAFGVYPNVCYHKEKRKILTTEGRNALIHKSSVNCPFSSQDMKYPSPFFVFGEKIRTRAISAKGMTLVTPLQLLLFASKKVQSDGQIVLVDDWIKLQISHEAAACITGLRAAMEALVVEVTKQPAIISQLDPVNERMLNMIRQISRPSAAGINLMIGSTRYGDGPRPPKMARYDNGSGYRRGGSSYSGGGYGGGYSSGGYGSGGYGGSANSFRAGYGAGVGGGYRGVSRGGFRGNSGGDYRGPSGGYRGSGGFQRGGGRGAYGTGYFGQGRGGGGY

Row | Structure (SMILES) | DHX9 Biochemical Max Inhibition [%] | IC50 [nM]
1 | CS(=O)(=O)Nc1cccc(NC(=O)c2cc(C(=O)Nc3ccc(OCCN4CCOCC4)cc3)cs2)c1 [Example 122] | 69.7 | 196
2 | Cc1cc(C(=O)Nc2cccc(NS(C)(=O)=O)c2)c(C)n1C1CC1 [Example 25] | 67.1 | 2320
3 | CCn1ncc(C(=O)Nc2cccc(NS(C)(=O)=O)c2)c1C1CC1 [Example 18] | 58.6 | 92400
4 | CS(=O)(=O)Nc1cccc(NC(=O)c2cc(C(=O)NCCN3CCCCC3)cs2)c1 [Example 150] | 68.6 | 102
5 | CS(=O)(=O)Nc1cccc(NC(=O)c2cccc(-c3ccccc3)c2)c1 [Example 37] | 67 | 1720
6 | COc1ccc(C)c(-c2csc(C(=O)Nc3cccc(NS(C)(=O)=O)c3)c2)c1 [Example 68] | 70.3 | –
7 | CS(=O)(=O)Nc1cccc(NC(=O)c2cc(C(=O)Nc3ccc(Oc4ccccc4)cc3)cs2)c1 [Example 117] | 52.7 | 686
8 | CS(=O)(=O)Nc1cccc(NC(=O)c2cc(-c3ccccc3)[nH]n2)c1 [Example 36] | 56.3 | 1860
9 | CS(=O)(=O)Nc1cccc(NC(=O)c2cc(-c3ccccc3)c(Br)s2)c1 [Example 98, 5-bromo-N-(3-(methylsulfonamido)phenyl)-4-phenylthiophene-2-carboxamide] | 77.7 | 543
10 | Cc1ccccc1-c1csc(C(=O)Nc2cccc(NS(C)(=O)=O)c2)c1 [Example 46] | 73.9 | 123
11 | Cc1nc(-c2cc(C(=O)Nc3cccc(NS(C)(=O)=O)c3)co2)cs1 [Example 7] | 73.3 | 804
12 | CS(=O)(=O)Nc1cccc(NC(=O)c2cc(C(=O)Nc3cnc4ccccn34)cs2)c1 [Example 129] | 67.2 | 88.9
13 | CS(=O)(=O)Nc1cccc(NC(=O)c2csc(C3CC3)n2)c1 [Example 32] | 67.9 | 5770
14 | CS(=O)(=O)Nc1cccc(NC(=O)c2cc(C(=O)Nc3ccccc3CCO)cs2)c1 [Example 143] | 73.3 | 91.5
15 | Cn1c(=O)n(C)c2cc(NC(=O)c3csc(C(=O)Nc4cccc(NS(C)(=O)=O)c4)c3)ccc21 [Example 131] | 65.8 | 52.2
16 | CS(=O)(=O)Nc1cccc(NC(=O)c2csc(-c3ccc(F)cc3)n2)c1 [Example 24] | 62.5 | 1040
17 | Cc1ccc(NC(=O)c2csc(C(=O)Nc3cccc(NS(C)(=O)=O)c3)c2)cc1Cl [Example 104] | 67.3 | 504
18 | CS(=O)(=O)Nc1cccc(NC(=O)c2csc(S(=O)(=O)N3CCOCC3)c2)c1 [Example 30] | 69.1 | 34100
19 | Cc1cc(NC(=O)c2csc(C(=O)Nc3cccc(NS(C)(=O)=O)c3)c2)ccc1Cl [Example 113] | 59.7 | 515
20 | CS(=O)(=O)Nc1cccc(NC(=O)c2ccccc2N2CCCCC2)c1 [Example 9] | 48.3 | 3940
21 | CS(=O)(=O)Nc1cccc(NC(=O)c2cc(-c3ccc(O)cc3)[nH]n2)c1 [Example 64] | 78.1 | 589
